Experimental data published in patent publication US20240381872A1, “SUBSTITUTED 2,3-DIHYDRO[1,3]THIAZOLO[4,5-B]PYRIDINES, SALTS THEREOF AND THEIR USE AS HERBICIDALLY ACTIVE SUBSTANCES” (BAYER AKTIENGESELLSCHAFT, priority 2021, published 2024).

Experiments:
Type in all cases: in vivo
Lolium rigidum (LOLRI) = experiment: Herbicidal pre-emergence action, section C (Table C5); settings: visual grading after ca. 3 weeks
From the text: (§1) Seeds of mono- and dicotyledonous weed plants and crop plants were sown, in plastic or organic planting pots, in sandy loam and covered with soil. The compounds according to the invention, formulated in the form of wettable powders (WP) or as emulsifiable concentrates (EC), were applied to the surface of the covering soil as aqueous suspension or emulsion, with the addition of 0.5% of an additive, at an application rate of 600 l of water/ha (converted). Following treatment, the pots were placed in a greenhouse and kept under optimum growth conditions for the test plants. The visual grading of the damage to the test plants was carried out after ca. 3 weeks in comparison to untreated controls (herbicidal effect in percent (%): 100% effect=plants have died off, 0% effect=as control plants).

[1] = system: Digitaria sanguinalis (DIGSA); experiment: Herbicidal post-emergence action, section B (Table B12); settings: visual rating about 3 weeks after treatment vs untreated controls; for pest or weed control at 1280 g/ha: Digitaria sanguinalis, post-emergence, 504 h, read-out: post-emergence activity against DIGSA in %
In short: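 Percent effect, judged by eye against untreated controls (0% = like control, 100% = plants dead), was recorded about 3 weeks after a foliar spray. The spray, at 600 liters per hectare with 0.5% additive, was applied to one-leaf-stage plants grown in sandy loam.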

Glycine max (GLXMA) = experiment: Pre-emergence effects on crop plants, section D (Table D4); settings: visual grading after ca. 3 weeks
In short: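 Formulated compound (wettable powder or emulsifiable concentrate) was applied pre-emergence to the soil surface at 320 g/ha or lower. Greenhouse-grown plants were rated visually for percent damage after ca. 3 weeks.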

[2] = system: Amaranthus retroflexus (AMARE); experiment: Herbicidal pre-emergence action, section A (Table A11); settings: for pest or weed control at 320 g/ha: Amaranthus retroflexus, 504 h, read-out: pre-emergence activity against AMARE in %
In short: (§2)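 Read-out is visual herbicidal effect in percent (100% = plants died, 0% = as control), graded ca. 3 weeks after treatment. Test compounds as WP or EC were applied to covering soil over sown seeds with 0.5% additive, 600 l water per hectare; greenhouse growth.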

[3] = system: Echinochloa crus-galli (ECHCG); experiment: Herbicidal pre-emergence action, section A (Table A3); settings: visual grading after ca. 3 weeks vs untreated controls; for pest or weed control at 320 g/ha: Echinochloa crus-galli, pre-emergence, 504 h, read-out: pre-emergence activity against ECHCG in %
In short: as §2

[4] = system: Echinochloa crus-galli (ECHCG); experiment: Herbicidal pre-emergence action, section C (Table C3); settings: visual grading after ca. 3 weeks vs untreated controls
In short: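 Weed and crop seeds sown in sandy loam, covered with soil, then WP or EC formulations sprayed onto the soil surface as aqueous suspension/emulsion with 0.5% additive at 600 l water/ha. Kept in greenhouse under optimum conditions; damage graded visually after ca. 3 weeks versus untreated controls (0% = as control, 100% = plants dead).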

[5] = system: Abutilon theophrasti (ABUTH); experiment: Herbicidal pre-emergence action, section A (Table A1); settings: visual grading after ca. 3 weeks vs untreated controls
From the text: as §1, with “plants” for “plants and crop plants”, “sown” for “sown,”, “pots (double sowings with one species of mono- and one species of dicotyledonous weed plants per pot),” for “or organic planting pots,”, “loam,” for “loam”, “water per hectare” for “water/ha”

SMILES	post-emergence activity against DIGSA in % ([1]; application rate 1280 g/ha)	pre-emergence activity against ECHCG in % ([4]; application rate 80 g/ha)	pre-emergence activity against AMARE in % ([2]; application rate 320 g/ha)	pre-emergence activity against ECHCG in % ([3]; application rate 320 g/ha)	pre-emergence activity against LOLRI in % (Lolium rigidum (LOLRI); application rate 320 g/ha)	pre-emergence activity against ABUTH in % ([5]; application rate 1280 g/ha)	pre-emergence activity against ECHCG in % ([4]; application rate 320 g/ha)	other results
CCOCCS(=O)(=O)N1C[S+]([O-])c2cc(C)c(-c3ccccc3F)nc21 (centres unmarked) [Example I-127]	–	–	–	–	–	–	–	pest or weed control at 80 g/ha (Lolium rigidum (LOLRI); Lolium rigidum, pre-emergence, 504 h, application rate 80 g/ha, read-out: pre-emergence activity against LOLRI in %): 80%; pest or weed control at 1280 g/ha ([1]; application rate 1280 g/ha): 90%; pre-emergence activity against GLXMA in % (crop plant damage) (Glycine max (GLXMA); application rate 80 g/ha): 20%; pest or weed control at 320 g/ha ([2]; application rate 320 g/ha): 90%; pest or weed control at 320 g/ha ([3]; application rate 320 g/ha): 100%
COCC1(C(=O)N2CSc3cc(C)c(-c4ccccc4F)nc32)CC(Cl)=NO1 (centres unmarked) [Example I-128]	90%	100%	90%	100%	–	–	–	pre-emergence activity against LOLRI in % (Lolium rigidum (LOLRI); application rate 80 g/ha): 100%; pre-emergence activity against ABUTH in % ([5]; application rate 320 g/ha): 90%
Cc1cc2c(nc1-c1ccccc1F)N(C(=O)C13CCCC1C(Cl)=NO3)CS2 (centres unmarked) [Example I-104]	90%	100%	90%	100%	100%	90%	–	–
COC(=O)CCC(=O)N1CSc2cc(C)c(-c3ccccc3F)nc21 [Example I-010]	90%	100%	–	100%	100%	90%	–	pre-emergence activity against AMARE in % ([2]; application rate 1280 g/ha): 100%
Cc1cc2c(nc1-c1ccccc1)N(C(=O)C1(C)CC(Cl)=NO1)CS2 (centres unmarked) [Example I-088]	100%	–	90%	100%	–	–	100%	–
CC1(C(=O)N2CSc3cc(Br)c(-c4ccccc4)nc32)CC(Cl)=NO1 (centres unmarked) [Example I-139]	90%	–	100%	100%	80%	–	100%	pre-emergence activity against ABUTH in % ([5]; application rate 320 g/ha): 90%
Cc1ccccc1-c1nc2c(cc1C)SCN2C(=O)C1(C)CC(Cl)=NO1 (centres unmarked) [Example I-137]	90%	100%	100%	100%	100%	100%	–	–
Cc1cc2c(nc1-c1cccc(C)c1F)NCS2 [Example I-113]	–	–	90%	–	90%	–	100%	post-emergence activity against DIGSA in % ([1]; application rate 320 g/ha): 90%; pre-emergence activity against GLXMA in % (crop plant damage) (Glycine max (GLXMA); application rate 320 g/ha): 10%; pre-emergence activity against ECHCG in % ([3]; application rate 1280 g/ha): 100%
CC1(C(=O)N2CSc3cc(Br)c(-c4ccccc4Cl)nc32)CC(Cl)=NO1 (centres unmarked) [Example I-141, [6-bromo-5-(2-chlorophenyl)[1,3]thiazolo[4,5-b]pyridin-3(2H)-yl](3-chloro-5-methyl-4,5-dihydro-1,2-oxazol-5-yl)methanone]	–	–	–	–	–	–	–	pest or weed control at 1280 g/ha ([1]; application rate 1280 g/ha): 90%; pest or weed control at 320 g/ha ([4]; Echinochloa crus-galli, pre-emergence, 504 h, application rate 320 g/ha, read-out: pre-emergence activity against ECHCG in %): 100%; pest or weed control at 320 g/ha ([2]; application rate 320 g/ha): 100%; pest or weed control at 320 g/ha ([5]; Abutilon theophrasti, pre-emergence, 504 h, application rate 320 g/ha, read-out: pre-emergence activity against ABUTH in %): 100%; pest or weed control at 320 g/ha ([3]; application rate 320 g/ha): 100%
